Source: patent publication US20210269451A1, “PYRIDINYL HETEROCYCLYL COMPOUNDS FOR THE TREATMENT OF AUTOIMMUNE DISEASE” (Hoffmann-La Roche Inc., priority 2018, published 2021)

target: T1, human TLR8 (Homo sapiens, UniProt Q9NR97); test: HEK293-Blue-hTLR-8 cells assay; assay type: cell-based; details: HEK293-Blue-hTLR8 cells, R848 stimulation, 20 hrs, SEAP reporter; read-out: HEK/hTLR8 IC50
T1 construct: host or cells: HEK293-Blue-hTLR-8 (HEK293)
T1 sequence (Q9NR97 27-1041): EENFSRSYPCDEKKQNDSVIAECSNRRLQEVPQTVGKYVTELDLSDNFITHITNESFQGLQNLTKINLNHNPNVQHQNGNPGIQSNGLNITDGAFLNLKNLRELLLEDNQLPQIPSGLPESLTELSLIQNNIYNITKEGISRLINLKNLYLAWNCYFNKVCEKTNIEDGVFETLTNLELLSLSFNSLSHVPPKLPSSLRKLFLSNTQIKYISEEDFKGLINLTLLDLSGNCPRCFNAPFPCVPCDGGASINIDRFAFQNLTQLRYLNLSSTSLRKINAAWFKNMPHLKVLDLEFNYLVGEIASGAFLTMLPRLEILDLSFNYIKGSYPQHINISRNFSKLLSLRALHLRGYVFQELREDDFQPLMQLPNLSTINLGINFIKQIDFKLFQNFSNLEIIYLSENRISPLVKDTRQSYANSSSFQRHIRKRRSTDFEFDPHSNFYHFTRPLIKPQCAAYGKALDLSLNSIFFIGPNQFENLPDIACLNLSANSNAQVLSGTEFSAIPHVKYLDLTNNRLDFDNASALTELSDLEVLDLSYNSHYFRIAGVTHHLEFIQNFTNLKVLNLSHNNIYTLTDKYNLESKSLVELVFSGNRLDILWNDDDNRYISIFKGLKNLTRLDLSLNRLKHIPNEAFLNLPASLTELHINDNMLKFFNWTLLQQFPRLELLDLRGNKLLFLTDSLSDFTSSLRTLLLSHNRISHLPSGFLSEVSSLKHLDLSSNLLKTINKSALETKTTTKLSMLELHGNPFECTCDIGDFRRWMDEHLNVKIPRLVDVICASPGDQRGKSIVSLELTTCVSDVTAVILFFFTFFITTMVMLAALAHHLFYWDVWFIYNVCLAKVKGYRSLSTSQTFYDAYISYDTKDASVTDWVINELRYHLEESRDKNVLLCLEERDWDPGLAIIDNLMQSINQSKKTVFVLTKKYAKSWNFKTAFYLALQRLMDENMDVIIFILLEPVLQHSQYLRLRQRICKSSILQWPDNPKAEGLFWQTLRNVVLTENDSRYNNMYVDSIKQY
Description: The following tests were carried out in order to determine the activity of the compounds of formula (I) and (Ia) in HEK293-Blue-hTLR-7/8/9 cells assay.
HEK293-Blue-hTLR-8 cells assay:
A stable HEK293-Blue-hTLR-8 cell line was purchased from InvivoGen (Cat. #: hkb-htlr8, San Diego, Calif., USA). These cells were originally designed for studying the stimulation of human TLR8 by monitoring the activation of NE-κB. A SEAP (secreted embryonic alkaline phosphatase) reporter gene was placed under the control of the IFN-β minimal promoter fused to five NE-κB and AP-1-binding sites. The SEAP was induced by activating NE-κB and AP-1 via stimulating HEK-Blue hTLR8 cells with TLR8 ligands. Therefore the reporter expression was declined by TLR8 antagonist under the stimulation of a ligand, such as R848, for incubation of 20 hrs. The cell culture supernatant SEAP reporter activity was determined using QUANTI-Blue™ kit (Cat. #: rep-qbl, Invivogen, San Diego, Ca, USA) at a wavelength of 640 nm, a detection medium that turns purple or blue in the presence of alkaline phosphatase.
HEK293-Blue-hTLR8 cells were incubated at a density of 250,000-450,000 cells/mL in a volume of 170 μL in a 96-well plate in Dulbecco's Modified Eagle's medium (DMEM) containing 4.5 g/L glucose, 50 U/mL penicillin, […], […], 2 mM L-glutamine, 10% (v/v) heat-inactivated fetal bovine serum with addition of 20 μL test compound in a serial dilution in the presence of final DMSO at 1% and 10 μL of 60 uM R848 in above DMEM, perform incubation under 37° C. in a CO2 incubator for 20 hrs. Then 20 μL of the supernatant from each well was incubated with 180 μL Quanti-blue substrate solution at 37° C. for 2 hrs and the absorbance was read at 620˜655 nm using a spectrophotometer. The signalling pathway that TLR8 activation leads to downstream NE-κB activation has been widely accepted, and therefore similar reporter assay was modified for evaluating TLR8 antagonist.

Compound | IC50 [nM]
Cc1cc(NC2CCN(C[C@H]3CN(c4ccc(C#N)c5ncccc45)C[C@@H](C)O3)CC2)cc(CO)n1 [Example 5] | 33
Cc1cc(N2CC[C@@H](NC[C@H]3CN(c4ccc(C#N)c5ncccc45)C[C@@H](C)O3)C2)cc(CO)n1 [Example 28] | 32
C[C@@H]1CN(c2ccc(C#N)c3ncccc23)C[C@H](CNC2CCN(c3ccnc(N)c3)CC2)O1 [Example 20, 5-[(2S,6R)-2-[[[1-(2-amino-4-pyridyl)-4-piperidyl]amino]methyl]-6-methyl-morpholin-4-yl]quinoline-8-carbonitrile] | 70
C[C@@H]1CN(c2ccc(C#N)c3ncccc23)C[C@H](CN2CCN(c3ccnc(N)c3)CC2)O1 [Example 19, 5-[(2S,6R)-2-[[4-(2-amino-4-pyridyl)piperazin-1-yl]methyl]-6-methyl-morpholin-4-yl]quinoline-8-carbonitrile] | 3
Cc1cc(C2CCN(C[C@H]3CN(c4ccc(C#N)c5ncccc45)C[C@@H](C)O3)CC2)cc(N)n1 [Example 43, 5-[(2S,6R)-2-[[4-(2-amino-6-methyl-4-pyridyl)-1-piperidyl]methyl]-6-methyl-morpholin-4-yl]quinoline-8-carbonitrile] | 18
Cc1cc(N2CC(NC[C@H]3CN(c4ccc(C#N)c5ncccc45)C[C@@H](C)O3)CC(F)(F)C2)cc(CO)n1 (some centres unmarked) [Example 36] | 12
C[C@@H]1CN(c2ccc(C#N)c3ncccc23)C[C@H](CN2CC3(C2)CN(c2ccnc(C4CC4)c2)CCO3)O1 [Example 3, 5-[(2S,6R)-2-[[8-(2-cyclopropyl-4-pyridyl)-5-oxa-2,8-diazaspiro[3.5]nonan-2-yl]methyl]-6-methyl-morpholin-4-yl]quinoline-8-carbonitrile] | < 3
Cc1cc(NC2CN(C[C@H]3CN(c4ccc(C#N)c5ncccc45)C[C@@H](C)O3)C2)cc(C)n1 [Example 7] | 31
